Test: Time-dependent IVM partitioning into the CHO cell membrane (removal from aqueous phase, absorbance at 245 nm)
Assay type: physicochemical, Chinese hamster
Settings: 4 μM IVM, 140,000 CHO cells in 1 ml
Method: Figure 7 Recovery of ACh-evoked currents in the absence or presence of IVM. […] (B) Representative currents for the same experiment as in A, but with IVM (0.5 μM) added after peak IP1. Currents in A and B were measured at −60 mV. […] Red bars correspond to ACh-elicited currents where IVM was added as in panel B (N = 5). Error bars correspond to SEM. Asterisks correspond to unpaired, two-tailed Student’s t-tests with 0.001 < *P < 0.05, 0.0001 < **P < 0.001 and ***P < 0.0001. (D) Fractional removal of IVM from the aqueous phase of a 1-ml solutions containing 140,000 CHO cells and 4 μM IVM. Removal of IVM was determined following the indicated incubation times by measuring the absorbance of supernatants at 245 nm wavelength (e.g., Supplementary Fig. S3; Supplementary Materials and Methods). Note that, no IVM removal is indicated at the top of the y-axis. […]
To assess the IVM partitioning into the CHO cell plasma membrane during a short time period, we followed the procedure of Silberberg et al.[58] with a few modifications accounting for our experimental conditions. To this end, we incubated 140,000 CHO cells (correspond to 3.2 μM plasma membrane lipids[121]) with 4 μM IVM for either 0, 15 or 300 seconds, pelleted the cells by a brief centrifugation (30 seconds), and analyzed the extent of IVM removal from the aqueous solution (elaborated in the Supplementary Materials and Methods). […]

In the case of `CC[C@H](C)[C@H]1O[C@]2(CC[C@@H]1C)C[C@@H]1C[C@@H](C/C=C(\C)[C@@H](O[C@H]3C[C@H](OC)[C@@H](O[C@H]4C[C@H](OC)[C@@H](O)[C@H](C)O4)[C@H](C)O3)[C@@H](C)/C=C/C=C3\CO[C@@H]4[C@H](O)C(C)=C[C@@H](C(=O)O1)[C@]34O)O2` [IVM, Ivermectin], the “IVM removed from the aqueous solution by the CHO cells” value (15 seconds of incubation) is reported as “no statistically significant amount” and the “IVM removed from the aqueous solution by the CHO cells” value (5 minutes of incubation) is reported as ~24%.
